Patent US8815857B2 (Boehringer Ingelheim International GmbH, priority 2011, dated 2014)
Values after ≈ are worked out from the molar mass of the structure shown.

Experiments:
[1] = molecular target: T1, Recombinant human soluble guanylate cyclase (sGC), alpha 1 / beta 1 subunits, heme-free (Homo sapiens, UniProt Q02108+Q02153); assay: Molecular assay: cGMP formation by heme-free recombinant sGC (CisBio cGMP detection kit); assay type: biochemical; conditions: 300 pM heme-free sGC, 37° C., 60 min, cGMP readout; read-out: EC50 nM, Activity of Compounds in Molecular Assay
T1 construct: histidine tag (C); made in house; host or cells: Sf9 insect cells (baculovirus coinfection)
T1 sequence (Q02108 1-690 partner): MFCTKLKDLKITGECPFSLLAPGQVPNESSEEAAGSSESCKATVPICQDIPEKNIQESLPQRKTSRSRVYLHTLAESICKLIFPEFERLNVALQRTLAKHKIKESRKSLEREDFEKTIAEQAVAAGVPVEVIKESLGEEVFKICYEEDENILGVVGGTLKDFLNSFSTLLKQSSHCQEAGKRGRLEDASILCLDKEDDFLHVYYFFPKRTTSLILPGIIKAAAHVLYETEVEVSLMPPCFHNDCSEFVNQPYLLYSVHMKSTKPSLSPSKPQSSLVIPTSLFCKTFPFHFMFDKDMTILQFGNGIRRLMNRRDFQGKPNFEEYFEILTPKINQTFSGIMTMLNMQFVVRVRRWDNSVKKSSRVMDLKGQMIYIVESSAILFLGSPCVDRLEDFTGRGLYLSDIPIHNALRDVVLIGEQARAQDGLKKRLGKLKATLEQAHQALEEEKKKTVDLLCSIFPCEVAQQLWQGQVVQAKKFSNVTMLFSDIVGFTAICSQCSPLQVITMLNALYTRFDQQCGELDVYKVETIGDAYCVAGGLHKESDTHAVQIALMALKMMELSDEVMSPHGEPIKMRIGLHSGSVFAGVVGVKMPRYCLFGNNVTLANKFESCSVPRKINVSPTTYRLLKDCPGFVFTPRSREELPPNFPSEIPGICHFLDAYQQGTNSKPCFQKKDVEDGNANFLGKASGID
T1 sequence (Q02153 1-619): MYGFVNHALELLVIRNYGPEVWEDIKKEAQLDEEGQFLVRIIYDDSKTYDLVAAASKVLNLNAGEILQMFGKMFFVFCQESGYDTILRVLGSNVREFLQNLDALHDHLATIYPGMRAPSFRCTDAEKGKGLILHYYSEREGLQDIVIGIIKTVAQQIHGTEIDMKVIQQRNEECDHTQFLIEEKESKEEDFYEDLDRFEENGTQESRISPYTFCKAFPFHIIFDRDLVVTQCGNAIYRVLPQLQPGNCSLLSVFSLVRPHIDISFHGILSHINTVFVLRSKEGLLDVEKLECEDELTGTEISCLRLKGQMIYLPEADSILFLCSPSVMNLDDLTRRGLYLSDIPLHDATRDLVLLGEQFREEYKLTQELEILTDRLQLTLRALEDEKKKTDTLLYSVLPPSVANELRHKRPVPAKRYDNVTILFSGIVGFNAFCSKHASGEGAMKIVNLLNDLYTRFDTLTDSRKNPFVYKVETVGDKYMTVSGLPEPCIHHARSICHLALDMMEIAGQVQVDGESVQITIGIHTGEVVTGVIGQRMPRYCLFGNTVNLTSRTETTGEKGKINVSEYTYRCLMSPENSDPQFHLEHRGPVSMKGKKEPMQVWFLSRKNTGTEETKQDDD
Experimental: Recombinant human soluble guanylate cyclase (sGC) is purified from Sf9 insect cells coinfected with baculoviruses expressing the alpha 1 or beta 1 subunit of sGC, both with a C-terminal histidine tag. Heme-free sGC is prepared by treating cell lysate with a final concentration of 0.5% Tween 20 prior to purification on a nickel affinity column.
sGC catalyzes the conversion of guanosine-5′-triphosphate (GTP) to cyclic guanosine monophosphate (cGMP). The activity of sGC is measured in vitro using the commercially available CisBio cGMP detection kit (catalog # 62GM2PEB) in a 384 well format. In brief, 300 pM heme-free sGC is incubated in reaction buffer (50 mM MOPS pH 6.8, 0.2 N KOH, 50 mM NaCl, 2 mM MgCl2, 0.1% BSA, 1.25 mM IBMX, 0.25 mM TCEP, 50 nM GTP) in the presence or absence of dilutions of test compounds diluted in DMSO (final concentration of 1%) in a volume of 10 microL at 37° C. for 60 min. Undiluted reaction products or an 80-fold dilution of reaction products (10 microL of either) prepared in reaction buffer containing 0.2 mM TCEP and 10 mM EDTA is mixed with 5 microL of d2-cGMP plus 5 microL of Eu^3+ cryptate-labeled anti-cGMP, each diluted in buffer containing 0.1 M KPO4 pH 7.5, 0.4 M KF, 20 mM EDTA, 0.2% BSA. After a one h incubation at room temperature in the dark, the mixtures are quantified on an EnVision plate reader (PerkinElmer) according to manufacturer instructions (laser excitation 337 nm, emission 620 and 665 nm). The ratio at each compound concentration is converted to nM cGMP using the linear portion of a calibration curve. Log compound concentration is plotted against combined undiluted and diluted nM cGMP values to determine the EC50 for each curve.

[2] = Assessment of solubility: HT solubility in pION buffer, UV spectrophotometry; conditions: 16-19 h incubation, 1.0% DMSO; for solubility: pION system solution buffer, kinetic from dmso stock
[3] = pH 4.5, pH 4.5, aqueous buffer, Solubility (pH 4.5), pH 4.5 buffer
[4] = pH 7.4, pH 7.4, aqueous buffer, Solubility (pH 7.4), pH 7.4 buffer

| Structure (SMILES) | EC50 [1] | other results |
| --- | --- | --- |
| Cc1ccc(OCc2ccc(CN3CCOCC3)cc2C#N)c(-c2csc(N3CC[C@@H](C(=O)O)[C@@H](C)C3)n2)c1 (relative stereo) [Compound 69, cis-1-[4-[2-[[2-cyano-4-(morpholinomethyl)phenyl]methoxy]-5-methyl-phenyl]thiazol-2-yl]-3-methyl-piperidine-4-carboxylic acid] | 72 nM | solubility [2, 3]: > 65 µg/mL; solubility [2, 4]: > 65 µg/mL |
| Cc1ccc(OCc2ccc(CN3CCOCC3)cc2C)c(-c2csc(N3CC[C@@H](C(=O)O)C3)n2)c1 (single isomer, unassigned) [Compound 5, R-1-{4-[5-methyl-2-(2-methyl-4-morpholin-4-ylmethyl-benzyloxy)-phenyl]-thiazol-2-yl}-pyrrolidine-3-carboxylic acid] | 2000 nM | solubility [2, 3]: 37 µg/mL (≈ 72.9 µM); solubility [2, 4]: 40 µg/mL (≈ 78.8 µM) |
| Cc1ccc(OCc2ccc(CN3CCOCC3)cc2C)c(-c2csc(N3CC[C@@H](C(=O)O)[C@@H](C)C3)n2)c1 (single isomer, unassigned) [Compound 50] | 520 nM | solubility [2, 3]: 18 µg/mL (≈ 33.6 µM); solubility [2, 4]: > 53 µg/mL |
| Cc1cc(CN2CCOCC2)ccc1COc1ccccc1-c1csc(N2CCC(C(=O)O)C(C)C2)n1 (centres unmarked) [Compound 2] | 320 nM | Solubility (pH 4.5) ([2]; pH 4.5 buffer): >71 μg/mL; Solubility (pH 7.4) ([2]; pH 7.4 buffer): >71 μg/mL |
| Cc1ccc(OCc2ccc(CN3CCOCC3)cc2C)c(-c2csc(NCCC(=O)O)n2)c1 [Compound 3] | 1300 nM | solubility [2, 3]: > 52 µg/mL; solubility [2, 4]: > 52 µg/mL |
| Cc1ccc(OCc2ccc(CN3CCOCC3)cc2C)c(-c2csc(NCCCC(=O)O)n2)c1 [Compound 4] | 760 nM | solubility [2, 3]: > 54 µg/mL; solubility [2, 4]: > 54 µg/mL |
| Cc1ccc(OCc2ccc(CN3CCOCC3)cc2C)c(-c2csc(N3CCC(C(=O)O)C3)n2)c1 (centres unmarked) [Compound 6] | 610 nM | solubility [2, 3]: > 62 µg/mL; solubility [2, 4]: > 62 µg/mL |
| Cc1cc(CN2CCS(=O)(=O)CC2)ccc1COc1ccccc1-c1csc(N2CC3CCC(C2)C3C(=O)O)n1 (centres unmarked) [Compound 120] | 18 nM |  |
| Cc1ccc(OCc2ccc(CN3CCS(=O)(=O)CC3)cc2C)c(-c2csc(N3CCC(C(=O)O)CC3C)n2)c1 (centres unmarked) [Compound 124] | 30 nM |  |
| Cc1cc(CN2CCS(=O)(=O)CC2)ccc1COc1ccc(Cl)cc1-c1csc(N2CCC(C(=O)O)C(C)C2)n1 (centres unmarked) [Compound 144] | 54 nM |  |
| Cc1ccc(OCc2ccc(CN3CCOCC3)cc2C)c(-c2csc(N3CC[C@H](C(=O)O)[C@H](C)C3)n2)c1 [Compound 176] | 160 nM |  |
| Cc1ccc(OCc2ccc(CN3CCOCC3)cc2C)c(-c2csc(N3CCC(C(=O)O)CC3C)n2)c1 (centres unmarked) [Compound 177] | 170 nM |  |
| Cc1cc(CN2CCOCC2)ccc1COc1ccccc1-c1csc(N2CCC(C(=O)O)C(C(F)(F)F)C2)n1 (centres unmarked) [Compound 185] | 2700 nM |  |
| Cc1cc(CN2CCOCC2)ccc1COc1ccc(Cl)cc1-c1csc(N2CC3C(C2)C3C(=O)O)n1 (centres unmarked) [Compound 187] | 390 nM |  |
| Cc1cc(CN2CCOCC2)ccc1COc1ccc(Cl)cc1-c1csc(C2=CCC(C(=O)O)CC2)n1 (centres unmarked) [Compound 188] | 830 nM |  |
| Cc1cc(CN2CCOCC2)ccc1COc1ccc(F)cc1-c1csc(C2=CCC(C(=O)O)CC2)n1 (centres unmarked) [Compound 191] | 530 nM |  |
| Cc1cc(CN2CCOCC2)ccc1COc1ccccc1-c1csc(C2=CCC(C(=O)O)CC2)n1 (centres unmarked) [Compound 193] | 2400 nM |  |

More lines, main results first:

| EC50 [1] | Structure (SMILES) | other results |
| --- | --- | --- |
| 60 nM | Cc1cc(C(=O)N2CCCCC2)ccc1COc1ccc(F)cc1-c1csc(N2CCC(C(=O)O)C(C)C2)n1 (centres unmarked) [Compound 1] | solubility [2, 3]: 0.85 µg/mL (≈ 1.54 µM); solubility [2, 4]: > 100 µg/mL |
| 330 nM | Cc1cc(C(=O)N2CCCCC2)ccc1COc1ccccc1-c1csc(C2=CCC(C(=O)O)CC2)n1 (centres unmarked) [Compound 8] | solubility [2, 3]: 0.15 µg/mL (≈ 0.29 µM); solubility [2, 4]: > 51 µg/mL |
| 680 nM | Cc1cc(C(=O)N2CCCCC2)ccc1COc1ccccc1-c1csc(N2CC3C(C2)C3C(=O)O)n1 (centres unmarked) [Compound 9] | solubility [2, 3]: 5.6 µg/mL (≈ 10.8 µM); solubility [2, 4]: > 51 µg/mL |
| 1100 nM | Cc1cc(CN2CCS(=O)(=O)CC2)ccc1COc1ccc(C#N)cc1-c1csc(N2CC3C(C2)C3C(=O)O)n1 (centres unmarked) [Compound 116] |  |
| 1900 nM | COCCCNC(=O)c1ccc(COc2ccc(C)cc2-c2csc(N3CCC(C(=O)O)CC3)n2)c(C)c1 [Compound 159] |  |
| 2800 nM | Cc1ccc(OCc2ccc(C(=O)N(C)CCN(C)C)cc2C)c(-c2csc(N3CCC(C(=O)O)CC3)n2)c1 [Compound 160] |  |
| 91 nM | Cc1ccc(OCc2ccc(C(=O)N(C)CC3CCCCC3)cc2C)c(-c2csc(N3CCC(C(=O)O)CC3)n2)c1 [Compound 161] |  |
| 71 nM | COCCCN(C)C(=O)c1ccc(COc2ccc(C)cc2-c2csc(N3CCC(C(=O)O)CC3)n2)c(C)c1 [Compound 162] |  |
| 750 nM | Cc1ccc(OCc2ccc(C(=O)NC3CCCCC3)cc2C)c(-c2csc(N3CCC(C(=O)O)CC3)n2)c1 [Compound 163] |  |
| 55 nM | Cc1ccc(OCc2ccc(C(=O)N(C)C3CCCCC3)cc2C)c(-c2csc(N3CCC(C(=O)O)CC3)n2)c1 [Compound 164] |  |
| 270 nM | COCCN(C)C(=O)c1ccc(COc2ccc(C)cc2-c2csc(N3CCC(C(=O)O)CC3)n2)c(C#N)c1 [Compound 178] |  |
| 1600 nM | Cc1cc(C(=O)N2CCCCC2)ccc1COc1ccc(Cl)cc1-c1csc(C2CCC(C(=O)O)CC2)n1 (centres unmarked) [Compound 182] |  |
| 4400 nM | Cc1cc(C(=O)N2CCCCC2)ccc1COc1ccc(C#N)cc1-c1csc([C@H]2CC[C@H](C(=O)O)CC2)n1 [Compound 183] |  |
| 1800 nM | Cc1cc(C(=O)N2CCCCC2)ccc1COc1ccc(C#N)cc1-c1csc(C2=CCC(C(=O)O)CC2)n1 (centres unmarked) [Compound 184] |  |
| 9000 nM | Cc1cc(CN2CCOCC2)ccc1COc1ccc(C#N)cc1-c1csc(C2=CCC(C(=O)O)CC2)n1 (centres unmarked) [Compound 189] |  |
| 2500 nM | Cc1cc(CN2CCOCC2)ccc1COc1ccc(F)cc1-c1csc(C2CCC(C(=O)O)CC2)n1 (centres unmarked) [Compound 190] |  |
| 150 nM | CCC(=O)N1CCN(Cc2ccc(COc3ccc(C)cc3-c3csc(N4CCC(C(=O)O)CC4)n3)c(C)c2)CC1 [Compound 194] |  |
| 83 nM | Cc1ccc(OCc2ccc(CN3CCN(C(=O)C(C)(C)C)CC3)cc2C)c(-c2csc(N3CCC(C(=O)O)CC3)n2)c1 [Compound 195] |  |
| 290 nM | Cc1ccc(OCc2ccc(C(=O)N(C)C)cc2C)c(-c2csc(N3CCC(C(=O)O)CC3)n2)c1 [Compound 294] |  |
